Measurements from PMC11513854, “De novo GTP synthesis is a metabolic vulnerability for the interception of brain metastases” (Cell Reports Medicine, 2024).

Key:
patient-derived BMICs = assay: Clonogenic sphere formation assay; assay type: cell-based, human; settings: limiting dilution and clonogenic sphere formation assays, IC80
Protocol: To assess tumor sphere forming capacity under clonogenic conditions, neurospheres were dissociated into single cells and plated at a low density of 200 cells/well in low-binding tissue culture-treated 96-well plates in serum-free media as previously described.[14]^,[66]^,[67]^,[68]^,[69] Cells were incubated with drug (IC80) or DMSO control, in triplicate, and incubated at 37°C with a humidified atmosphere of 5% CO2. The number of spheres per well were manually counted seven days later. The results were illustrated and analyzed for significance using GraphPad Prism 8 software.

[1] = system: primary lung CRUK0748 cell line; assay: Orthotopic injection of CRUK0748, daily oral gavage treatment; assay type: in vivo, mice; settings: 100 mg/kg daily oral gavage, vs placebo
Excerpt: Next, we injected mice orthotopically with the primary lung CRUK0748 cell line and treated them daily as described earlier (see Figure S3A).
All experimental procedures involving animal work has been reviewed and approved by McMaster University Animal Research Ethics Board. Non-obese diabetic-severe combined immunodeficient IL2r γ ^null (NSG) mice are used for all experiments. Equal numbers of male and female mice were used for all experiments. Healthy mice were 6–8 weeks at time of use. Mice are anesthetized by gas anesthesia using isoflurane (4% induction, 2.5% maintenance) before procedure. Cells were engineered to express firefly luciferase and were injected intracardially, orthotopically, or intracranially as previously described.[13]^,[14]^,[63]^,[64]^,[65] […] Mice are monitored weekly for signs of illness until endpoint.
Fig S3. MPA m ust cross the blood brain barrier to eff ectively slow the progression of BM over tim e, related to Figures 3 and 4. a, Mice were either orthotopically (intratho racically) or intracardiac injected with lung BMICs, […]
seven days post-injection by IVIS, (c), no significant reduction in tumor burden following t reatment completion […]
to placebo, but (f) had the same number of human cells detected in their brains following humane endpoint by flow cytometry. n.s. = not significant.
(1 picture or pasted object on this page, not shown here)

For COc1c(C)c2c(c(O)c1C/C=C(\C)CCC(=O)O)C(=O)OC2 [MPA, Mycophenolic acid], the “frequency of stemness in BMIC lines” value (patient-derived BMICs) was “significantly reduces the frequency of stemness”, the “number of human cells detected in mouse brains” value ([1]; humane endpoint, flow cytometry) was “no significant difference” and the survival [1] was “survived significantly longer”.
